These results are taken from patent US20260297042A1, “BIARYLAMIDE DERIVATIVES AND THEIR USE AS PKMYT1 INHIBITORS” (CANCER RESEARCH TECHNOLOGY LIMITED, priority 2023, published 2026).

One may read the IC50 as the midpoint of a concentration-inhibition curve. Low readings indicate greater potency in that assay, high ones weaker potency in that assay.

Each structure is given as a SMILES string. Structures can show the parent of a compound that is named as a salt.

One test has as its target T1, WEE1 (Homo sapiens, UniProt P30291).
T1 construct: purchased Thermo Fisher PR7373A
Nature of the test: Selectivity versus WEE1 assay (ADP-Glo enzymatic assay). The settings on record: for IC50: ADP-Glo; for PKMYT1 vs. WEE1 selectivity: fold difference in selectivity for PKMYT1 over WEE1. Type of test: biochemical. The essentials: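 ADP-Glo luminescence read-out after a 60 min reaction at 26° C, initiated by 30 µM ATP, with 15 nM enzyme in HEPES pH 7.5/MgCl2/EGTA/Brij-35 buffer containing 1% DMSO. Replicate IC50 values had to agree within 3-fold and fits needed r2 >0.9.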
For orientation: In ADP-Glo the light output rises with the ADP produced.

The target in another test is T2, Human PKMYT1 (Homo sapiens, UniProt Q99640).
T2 construct: Human PKMYT1 75-362 was cloned as a TEV cleavable 6xHis fusion; 6xHis (TEV cleavable) (cleaved yes); made in house; host or cells: bacterial cells
T2 sequence (Q99640 75-362): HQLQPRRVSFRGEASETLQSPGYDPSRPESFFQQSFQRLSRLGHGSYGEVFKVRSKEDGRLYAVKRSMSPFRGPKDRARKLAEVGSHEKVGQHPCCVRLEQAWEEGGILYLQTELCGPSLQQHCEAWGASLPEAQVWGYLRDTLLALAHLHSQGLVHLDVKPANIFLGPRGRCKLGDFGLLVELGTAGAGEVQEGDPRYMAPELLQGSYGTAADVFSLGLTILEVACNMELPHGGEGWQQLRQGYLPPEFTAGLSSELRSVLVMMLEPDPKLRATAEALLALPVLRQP
Nature of the test: PKMYT1 biochemical ADP-Glo enzymatic assay. As to conditions: ADP-Glo. The essentials: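 Luminescent ADP-Glo Max read-out of ADP produced by 15 nM PKMYT1 (residues 75-362, bacterial, His-tag removed) from 500 µM ATP without peptide substrate. Reaction: 50 mM HEPES pH 7.5, 10 mM MgCl2, 1 mM EGTA, 0.01% Brij-35, 60 min, 26 °C. IC50 values fitted from 10-point curves.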

Where [1] appears, read: 15 nM WEE1, 60 minutes at 26° C., banded.
The mark [2] stands for this setting: banded, ">N" = at least in this band but could be higher.
[3] abbreviates: 15 nM PKMYT1 kinase domain, 500 µM ATP, 60 minutes at 26° C., banded.
The mark [4] stands for this setting: PKMYT1 kinase domain 15 nM, banded values.

T1 sequence (P30291 whole entry): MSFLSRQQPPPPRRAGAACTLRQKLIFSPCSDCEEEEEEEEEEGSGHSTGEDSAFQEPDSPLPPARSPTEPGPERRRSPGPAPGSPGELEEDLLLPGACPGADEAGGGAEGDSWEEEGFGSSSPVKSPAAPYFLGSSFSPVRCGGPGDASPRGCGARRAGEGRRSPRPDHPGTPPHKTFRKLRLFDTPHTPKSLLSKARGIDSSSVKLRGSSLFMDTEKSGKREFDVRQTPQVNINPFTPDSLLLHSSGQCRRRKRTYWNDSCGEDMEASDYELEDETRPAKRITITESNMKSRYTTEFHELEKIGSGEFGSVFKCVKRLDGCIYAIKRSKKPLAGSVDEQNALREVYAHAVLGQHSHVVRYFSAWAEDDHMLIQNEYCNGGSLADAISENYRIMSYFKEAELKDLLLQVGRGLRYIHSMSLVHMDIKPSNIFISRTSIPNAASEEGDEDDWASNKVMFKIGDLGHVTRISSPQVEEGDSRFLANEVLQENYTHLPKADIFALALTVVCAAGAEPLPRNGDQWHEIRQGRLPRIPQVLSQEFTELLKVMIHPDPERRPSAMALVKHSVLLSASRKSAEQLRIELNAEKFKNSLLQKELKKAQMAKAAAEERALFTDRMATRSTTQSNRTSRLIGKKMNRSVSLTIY

Regarding `Cc1cn(-c2cncc(C(F)(F)F)c2)nc1Nc1ncc(C(=O)Nc2c(C)ccc(O)c2C)s1` [BAA-380, N-(3-hydroxy-2,6-dimethylphenyl)-2-((4-methyl-1-(5-(trifluoromethyl)pyridin-3-yl)-1H-pyrazol-3-yl)amino)thiazole-5-carboxamide], the IC50 against WEE1 (setting [1]) lay within 1 to 11 µM; against Human PKMYT1 (setting [3]), 50 to 1000 nM. Besides, on WEE1 (setting [2]), the “PKMYT1 vs. WEE1 selectivity” value is “W (10-<100 fold)”.

For `Cc1ccc(O)c(C)c1NC(=O)c1cnc(N[C@@H](C)c2ccccc2)s1` [BAA-351, (S)-N-(3-hydroxy-2,6-dimethylphenyl)-2-((1-phenylethyl)amino) thiazole-5-carboxamide], the values for the IC50 at WEE1 (setting [1]) and against Human PKMYT1 (setting [3]) were more than 11 µM and 1000 to 11000 nM, respectively. Besides, the “PKMYT1 vs. WEE1 selectivity” value at WEE1 (setting [2]) is “W (10-<100 fold)”.

Consider `COCCOCCNC(=O)Cn1ccc(Nc2ncc(C(=O)Nc3c(C)ccc(O)c3C)s2)n1` [BAA-134, N-(3-hydroxy-2,6-dimethyl-phenyl)-2-[[1-[2-[2-(2-methoxyethoxy)ethylamino]-2-oxo-ethyl]pyrazol-3-yl]amino]thiazole-5-carboxamide], for which the IC50 against WEE1 (setting [1]) is more than 11 µM; on Human PKMYT1 (setting [3]), less than 50 nM. On WEE1 (setting [2]), the “PKMYT1 vs. WEE1 selectivity” value is recorded as “Y (1000-5000 fold)”.

`Cc1ccc(O)c(C)c1NC(=O)c1cnc(Nc2c3ccncc3nn2C)s1` [BAA-244, N-(3-hydroxy-2,6-dimethylphenyl)-2-((2-methyl-2H-pyrazolo[3,4-c]pyridin-3-yl)amino)thiazole-5-carboxamide]: the half-inhibitory concentration (IC50) against WEE1 (setting [1]) is 1 to 11 µM; against Human PKMYT1 (setting [3]), less than 50 nM. Moreover, the “PKMYT1 vs. WEE1 selectivity” value at WEE1 (setting [2]) is “X (100-<1000 fold)”.

On to `Cc1ccc(O)c(C)c1NC(=O)c1cnc(Nc2cc(Cl)nc(C(F)(F)F)n2)s1` [BAA-287, 2-((6-chloro-2-(trifluoromethyl)pyrimidin-4-yl)amino)-N-(3-hydroxy-2,6-dimethylphenyl)thiazole-5-carboxamide], for which the concentration for half-maximal inhibition (IC50) against WEE1 (setting [1]) is more than 11 µM; at Human PKMYT1 (setting [3]), less than 50 nM. Also, at WEE1 (setting [2]), the “PKMYT1 vs. WEE1 selectivity” value was “Y (1000-5000 fold)”.

Turning to `Cc1ccc(O)c(C)c1NC(=O)c1cnc(Nc2ccon2)s1` [BAA-009, N-(3-hydroxy-2,6-dimethyl-phenyl)-2-(isoxazol-3-ylamino)thiazole-5-carboxamide], the half-inhibitory concentration (IC50) at WEE1 (setting [1]) was more than 11 µM; at Human PKMYT1 (setting [3]), less than 50 nM. Moreover, the “PKMYT1 vs. WEE1 selectivity” value at WEE1 (setting [2]) is reported as “X (100-<1000 fold)”.

With `Cc1ccc(O)c(C)c1NC(=O)c1cnc(Nc2cc(C3CC3)n(C)n2)s1` [BAA-245, 2-((5-cyclopropyl-1-methyl-1H-pyrazol-3-yl)amino)-N-(3-hydroxy-2,6-dimethylphenyl)thiazole-5-carboxamide], the IC50 is more than 11 µM against WEE1 (setting [1]) and less than 50 nM against Human PKMYT1 (setting [3]). Besides, the “PKMYT1 vs. WEE1 selectivity” value at WEE1 (setting [2]) was “Y (1000-5000 fold)”.

On to `Cc1cc(Nc2ncc(C(=O)Nc3c(C)ccc(O)c3C)s2)n(CC(C)C)n1` [BAA-238, N-(3-hydroxy-2,6-dimethylphenyl)-2-((1-isobutyl-3-methyl-1H-pyrazol-5-yl)amino)thiazole-5-carboxamide], for which the results for the IC50 at WEE1 (setting [1]) and against Human PKMYT1 (setting [3]) were more than 11 µM and less than 50 nM, respectively. The “PKMYT1 vs. WEE1 selectivity” value on WEE1 (setting [2]) is recorded as “Y (1000-5000 fold)”.

Regarding `Cc1ccc(O)c(C)c1NC(=O)c1cnc(Nc2cccc3c2CCC3)s1` [BAA-443, 2-((2,3-dihydro-1H-inden-4-yl)amino)-N-(3-hydroxy-2,6-dimethylphenyl)thiazole-5-carboxamide], the IC50 at WEE1 (WEE1 15 nM, banded values) was more than 11 µM; against Human PKMYT1 (setting [4]), 50 to 1000 nM. Moreover, the “PKMYT1 vs. WEE1 selectivity” value at WEE1 (banded) was “X (100-<1000 fold)”.

Regarding `Cc1ccc(O)c(C)c1NC(=O)c1cnc(Nc2ccn(CC(=O)NC3CCCC3)n2)s1` [BAA-192], the IC50 on WEE1 (setting [1]) is more than 11 µM; against Human PKMYT1 (setting [3]), less than 50 nM. For the same molecule, the “PKMYT1 vs. WEE1 selectivity” value on WEE1 (setting [2]) is recorded as “Y (1000-5000 fold)”.

For the molecule `Cc1ccc(O)c(C)c1NC(=O)c1cnc(Nc2cc(C(N)=O)n(C)n2)s1` [BAA-130, 2-[(5-Carbamoyl-1-methyl-pyrazol-3-yl)amino]-N-(3-hydroxy-2,6-dimethyl-phenyl)thiazole-5-carboxamide], the IC50 against WEE1 (setting [1]) was 1 to 11 µM; on Human PKMYT1 (setting [3]), less than 50 nM. Moreover, the “PKMYT1 vs. WEE1 selectivity” value on WEE1 (setting [2]) is “X (100-<1000 fold)”.

In the case of `Cc1ccc(O)c(C)c1NC(=O)c1nnc(Nc2ccn(C)n2)s1` [BAA-463, N-(3-Hydroxy-2,6-dimethylphenyl)-5-((1-methyl-1H-pyrazol-3-yl)amino)-1,3,4-thiadiazole-2-carboxamide], the concentration for half-maximal inhibition (IC50) was more than 11 µM against WEE1 (WEE1 15 nM, banded values) and 50 to 1000 nM against Human PKMYT1 (setting [4]). Also, the “PKMYT1 vs. WEE1 selectivity” value at WEE1 (banded) is on record as “X (100-<1000 fold)”.

As for `Cc1ccc(O)c(C)c1NC(=O)c1cnc(NCc2cccnc2)s1` [BAA-345, N-(3-hydroxy-2,6-dimethylphenyl)-2-((pyridin-3-ylmethyl)amino)thiazole-5-carboxamide], the half-inhibitory concentration (IC50) against WEE1 (setting [1]) was more than 11 µM; on Human PKMYT1 (setting [3]), 50 to 1000 nM. The “PKMYT1 vs. WEE1 selectivity” value at WEE1 (setting [2]) is given as “Y (1000-5000 fold)”.

`Cc1ccc(O)c(C)c1NC(=O)c1cnc(Nc2cccc3c2OCC3)s1` [BAA-530, 2-((2,3-dihydrobenzofuran-7-yl)amino)-N-(3-hydroxy-2,6-dimethylphenyl)thiazole-5-carboxamide. TFA salt]: the IC50 at WEE1 (WEE1 15 nM, banded values) was more than 11 µM; against Human PKMYT1 (setting [4]) it was 50 to 1000 nM. Further, the “PKMYT1 vs. WEE1 selectivity” value at WEE1 (banded) is “X (100-<1000 fold)”.

`Cc1ccc(O)c(C)c1NC(=O)c1cnc(NC2CCN(S(C)(=O)=O)CC2)s1` [BAA-067, N-(3-hydroxy-2,6-dimethyl-phenyl)-2-[(1-methylsulfonyl-4-piperidyl)amino]thiazole-5-carboxamide]: the results for the IC50 on WEE1 (setting [1]) and at Human PKMYT1 (setting [3]) were more than 11 µM and 1000 to 11000 nM, respectively. Further, on WEE1 (setting [2]), the “PKMYT1 vs. WEE1 selectivity” value is given as “>W (10-<100 fold)”.

On to `CCCNC(=O)Cn1ccc(Nc2ncc(C(=O)Nc3c(C)ccc(O)c3C)s2)n1` [BAA-197], for which the IC50 at WEE1 (setting [1]) is more than 11 µM; against Human PKMYT1 (setting [3]), less than 50 nM. Also, the “PKMYT1 vs. WEE1 selectivity” value at WEE1 (setting [2]) is on record as “Y (1000-5000 fold)”.

On to `Cc1cn(CC(=O)N(C)CC(F)(F)F)nc1Nc1ncc(C(=O)Nc2c(C)ccc(O)c2C)s1` [BAA-514, N-(3-hydroxy-2,6-dimethylphenyl)-2-((4-methyl-1-(2-(methyl(2,2,2-trifluoroethyl)amino)-2-oxoethyl)-1H-pyrazol-3-yl)amino)thiazole-5-carboxamide], for which the IC50 at WEE1 (WEE1 15 nM, banded values) is 1 to 11 µM; at Human PKMYT1 (setting [4]) it was less than 50 nM. Further, the “PKMYT1 vs. WEE1 selectivity” value at WEE1 (banded) is listed as “X (100-<1000 fold)”.

Regarding `Cc1cn(CCN(C)C)nc1Nc1ncc(C(=O)Nc2c(C)ccc(O)c2C)s1` [BAA-501, 2-((1-(2-(dimethylamino)ethyl)-4-methyl-1H-pyrazol-3-yl)amino)-N-(3-hydroxy-2,6-dimethylphenyl)thiazole-5-carboxamide], the IC50 at WEE1 (WEE1 15 nM, banded values) is more than 11 µM; on Human PKMYT1 (setting [4]) it was 50 to 1000 nM. Further, on WEE1 (banded), the “PKMYT1 vs. WEE1 selectivity” value is reported as “W (10-<100 fold)”.

Consider `CCN(CCO)C(=O)Cn1cc(C)c(Nc2ncc(C(=O)Nc3c(C)ccc(O)c3C)s2)n1` [BAA-535, 2-((1-(2-(Ethyl(2-hydroxyethyl)amino)-2-oxoethyl)-4-methyl-1H-pyrazol-3-yl)amino)-N-(3-hydroxy-2,6-dimethylphenyl)thiazole-5-carboxamide], for which the IC50 on WEE1 (WEE1 15 nM, banded values) was 1 to 11 µM; against Human PKMYT1 (setting [4]), less than 50 nM. Moreover, the “PKMYT1 vs. WEE1 selectivity” value on WEE1 (banded) is listed as “X (100-<1000 fold)”.

For the molecule `Cc1ccc(O)c(C)c1NC(=O)c1cnc(Nc2ccn(CC(=O)N3CC[C@H](O)C3)n2)s1` [BAA-162, N-(3-hydroxy-2,6-dimethyl-phenyl)-2-[1-[2-[(3S)-3-hydroxypyrrolidin-1-yl]-2-oxo-ethyl]pyrazol-3-ylamino]thiazole-5-carboxamide], the IC50 at WEE1 (setting [1]) was more than 11 µM; against Human PKMYT1 (setting [3]) it was less than 50 nM. In addition, at WEE1 (setting [2]), the “PKMYT1 vs. WEE1 selectivity” value is reported as “Y (1000-5000 fold)”.

As to `CCn1ccc(Nc2ncc(C(=O)Nc3c(C)ccc(O)c3C)s2)n1` [BAA-005, 2-[(1-ethylpyrazol-3-yl)amino]-N-(3-hydroxy-2,6-dimethyl-phenyl)thiazole-5-carboxamide], the IC50 on WEE1 (setting [1]) was 1 to 11 µM; against Human PKMYT1 (setting [3]) it was less than 50 nM. Besides, the “PKMYT1 vs. WEE1 selectivity” value on WEE1 (setting [2]) was “X (100-<1000 fold)”.

On to `CCn1cc(C#N)c(Nc2ncc(C(=O)Nc3c(C)ccc(O)c3C)s2)n1` [BAA-573, 2-((4-cyano-1-ethyl-1H-pyrazol-3-yl)amino)-N-(3-hydroxy-2,6-dimethylphenyl)thiazole-5-carboxamide], for which the IC50 was more than 11 µM at WEE1 (WEE1 15 nM, banded values) and less than 50 nM at Human PKMYT1 (setting [4]). For the same molecule, the “PKMYT1 vs. WEE1 selectivity” value on WEE1 (banded) is “Y (1000-5000 fold)”.

In the case of `Cc1ccc(O)c(C)c1NC(=O)c1cnc(Nc2cc(C(=O)O)n(C)n2)s1` [BAA-118, 5-[[5-[(3-hydroxy-2,6-dimethyl-phenyl)carbamoyl]thiazol-2-yl]amino]-2-methyl-pyrazole-3-carboxylic acid], the half-maximal inhibitory concentration (IC50) against WEE1 (setting [1]) was more than 11 µM; against Human PKMYT1 (setting [3]) it was less than 50 nM. In addition, the “PKMYT1 vs. WEE1 selectivity” value on WEE1 (setting [2]) is recorded as “X (100-<1000 fold)”.
